According to patent US20120022045A1, “BRIDGED COMPOUNDS AS HIV INTEGRASE INHIBITORS” (priority 2009, published 2012):

Key:
[1] = test system: HIV-1 integrase mutant virus N155H; assay: Single cycle infectivity assay in HeLa P4-2 cells, integrase mutant N155H virus; assay type: cell-based; settings: fold shift in IC50 versus wild type IIIB
Method in brief: (§1)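 HeLa P4-2 cells used in a single-cycle acute HIV-1 infection assay. Wild-type IIIB or integrase mutant viruses made by site-directed mutagenesis of proviral plasmids and produced by transfection of 293T cells.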

HIV-1 wild type IIIB = assay: Single cycle infectivity assay in HeLa P4-2 cells, wild type virus; assay type: cell-based; settings: wild type IIIB
Method in brief: as §1

[2] = test system: HIV-1 integrase mutant virus G140S/Q148H; assay: Single cycle infectivity assay in HeLa P4-2 cells, integrase mutant G140S/Q148H virus; assay type: cell-based; settings: fold shift in IC50 versus wild type IIIB
Method in brief: as §1

[3] = test system: HIV-1 integrase mutant virus Q148R; assay: Single cycle infectivity assay in HeLa P4-2 cells, integrase mutant Q148R virus; assay type: cell-based; settings: fold shift in IC50 versus wild type IIIB
Method in brief: as §1

HIV-1 integrase = target: T1, HIV-1 integrase (Human immunodeficiency virus type 1 group M subtype B, UniProt P04585); assay: HIV integrase assay: strand transfer catalyzed by recombinant integrase; assay type: biochemical; settings: strand transfer activity
T1 construct: strand transfer activity of HIV-1 integrase
Description: Assays for the strand transfer activity of HIV-1 integrase were conducted in accordance with WO 02/30930 for recombinant integrase.
Further description on conducting the assay using preassembled complexes is found in Wolfe, A. L. et al., J. Virol. 1996, 70: 1424-1432, Hazuda et al., J. Virol. 1997, 71: 7005-7011; Hazuda et al., Drug Design and Discovery 1997, 15: 17-24; and Hazuda et al., Science 2000, 287: 646-650.

[4] = test system: HIV-1 integrase mutant virus Y143R; assay: Single cycle infectivity assay in HeLa P4-2 cells, integrase mutant Y143R virus; assay type: cell-based; settings: fold shift in IC50 versus wild type IIIB
Method in brief: as §1

HIV-1 = assay: Inhibition of acute HIV-1 infection of T-lymphoid cells (spread assay); assay type: cell-based; settings: 10% FBS, read-out: IC95 (nM) in the presence of 10% FBS
Description: Assays for the inhibition of acute HIV-1 infection of T-lymphoid cells were conducted in accordance with Vacca, J. P. et al., Proc. Natl. Acad. Sci. USA 1994, 91: 4096.

SMILES	N155H (shift) [1] [fold]	IC50 (HIV-1 wild type IIIB) [nM]	G140S/Q148H (shift) [2] [fold]	Q148R (shift) [3] [fold]	IC50 (HIV-1 integrase) [nM]	Y143R (shift) [4] [fold]	IC95 (HIV-1) [nM]
CN(C)C(=O)C(=O)N(C)C12CCC(Cn3c1nc(C(=O)NCc1ccc(F)cc1)c(O)c3=O)OC2 (single isomer, unassigned) [Example 10B, N-(4-{[(4-Fluorobenzyl)amino]carbonyl}-5-hydroxy-6-oxo-10-oxa-3,7-diazatricyclo[7.2.2.0^2,7]trideca-2,4-dien-1-yl)-N′,N′,N′-trimethylethanediamide]	18	30	12	22	14	6	15
Cc1cc(CNC(=O)c2nc3n(c(=O)c2O)CC2CCC3(N(C)C(=O)C(=O)N(C)C)CO2)ccc1F (single isomer, unassigned) [Example 11A]	10	21	>79	8	37	2	17
